Patent US9399649B2, “Compounds for treating spinal muscular atrophy” (PTC Therapeutics Inc., priority 2012, dated 2016)

Key:
[1] = test system: full length SMN2 minigene mRNA containing SMN2 exon 7; assay: SMN2 minigene mRNA splicing RT-qPCR assay in cultured cells; type: cell-based, human; conditions: Homo sapiens, HEK293-H; HEK293H cells stably transfected with SMN2-A minigene, 24 hours, 7-point concentration curve; concentration giving 1.5-fold full length SMN2 mRNA vs vehicle; read-out: EC1.5x for production of full length SMN2 mRNA
Summary of the method: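 Read-out is minigene FL mRNA (exon 7 included) relative to vehicle, from efficiency-corrected ΔΔCt with GAPDH normalisation. Primers and probe span exon 7, exon 8 and luciferase, so endogenous SMN is not detected. Stable SMN2-A minigene HEK293H cells, 24 h compound exposure at 37 °C, 7-point curve in duplicate.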

Smn protein = Smn protein assay in cultured cells (SMN HTRF); type: cell-based, human; conditions: SMA patient fibroblast cells (GM03813), 48 hours; for EC1.5x for Smn protein expression: 7-point concentration curve, concentration producing 1.5 times Smn protein vs DMSO vehicle; for maximum fold (Fold) increase of Smn protein: 7-point concentration data, relative to vehicle control
Summary of the method: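 Smn protein measured by HTRF (anti-SMN d2/kryptate) in lysates of SMA patient fibroblasts after 48 h compound treatment, 7-point 3.16-fold dilutions, triplicates. The 665/620 nm ratio is blank-corrected to ΔF, then divided by the vehicle ΔF to give fold increase.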

Structure (SMILES) | melting point | EC (1.5-fold) [1] [µM] | EC1.5x for Smn protein expression (Smn protein) | maximum fold (Fold) increase of Smn protein (Smn protein)
Cc1cn2cc(-c3cc4ccc(N5CCN(C(C)(C)C)CC5)cc4c(=O)o3)nc2c(C)n1 [Cpd 83, 7-(4-tert-butylpiperazin-1-yl)-3-(6,8-dimethylimidazo[1,2-a]pyrazin-2-yl)-1H-isochromen-1-one] | 300 to 302 °C | 0.1 to 0.3 | *** (an EC1.5× between >0.3 nM and ≦1 nM is indicated by three stars (***)) | **** (a fold increase between >1.5 and ≦1.65 is indicated by four stars (****))
Cc1cn2cc(-c3cc4ccc(C5=CCNCC5)cc4c(=O)o3)nc2c(C)n1 [Cpd 88, 3-(6,8-dimethylimidazo[1,2-a]pyrazin-2-yl)-7-(1,2,3,6-tetrahydropyridin-4-yl)-1H-isochromen-1-one] | 266 °C (dec.) | ≤ 0.1 | **** (an EC1.5×≦0.3 nM is indicated by four stars (****)) | **** (a fold increase between >1.5 and ≦1.65 is indicated by four stars (****))
Cc1cn2cc(-c3cc4ccc(C5=CCN(C)CC5)cc4c(=O)o3)nc2c(C)n1 [Cpd 89, 3-(6,8-dimethylimidazo[1,2-a]pyrazin-2-yl)-7-(1-methyl-1,2,3,6-tetrahydropyridin-4-yl)-1H-isochromen-1-one] | 240 to 242 °C | ≤ 0.1 | **** (an EC1.5×≦0.3 nM is indicated by four stars (****)) | **** (a fold increase between >1.5 and ≦1.65 is indicated by four stars (****))
CCN1CC=C(c2ccc3cc(-c4cn5cc(C)nc(C)c5n4)oc(=O)c3c2)CC1 [Cpd 90, 3-(6,8-dimethylimidazo[1,2-a]pyrazin-2-yl)-7-(1-ethyl-1,2,3,6-tetrahydropyridin-4-yl)-1H-isochromen-1-one] | 227 to 229 °C | ≤ 0.1 | **** (an EC1.5×≦0.3 nM is indicated by four stars (****)) | ***** (a fold increase >1.65 is indicated by five stars (*****))
Cc1cn2cc(-c3cc4ccc(C5=CCN(C(C)C)CC5)cc4c(=O)o3)nc2c(C)n1 [Cpd 91, 3-(6,8-dimethylimidazo[1,2-a]pyrazin-2-yl)-7-[1-(propan-2-yl)-1,2,3,6-tetrahydropyridin-4-yl]-1H-isochromen-1-one] | 259 to 261 °C | ≤ 0.1 | *** (an EC1.5× between >0.3 nM and ≦1 nM is indicated by three stars (***)) | *** (a fold increase between >1.35 and ≦1.5 is indicated by three stars (***))
COCCN1CC=C(c2ccc3cc(-c4cn5cc(C)nc(C)c5n4)oc(=O)c3c2)CC1 [Cpd 92, 3-(6,8-dimethylimidazo[1,2-a]pyrazin-2-yl)-7-[1-(2-methoxyethyl)-1,2,3,6-tetrahydropyridin-4-yl]-1H-isochromen-1-one] | 174 to 176 °C | ≤ 0.1 | **** (an EC1.5×≦0.3 nM is indicated by four stars (****)) | ***** (a fold increase >1.65 is indicated by five stars (*****))
Cc1cn2cc(-c3cc4ccc(C5=CCN(C6CC6)CC5)cc4c(=O)o3)nc2c(C)n1 [Cpd 93, 7-(1-cyclopropyl-1,2,3,6-tetrahydropyridin-4-yl)-3-(6,8-dimethylimidazo[1,2-a]pyrazin-2-yl)-1H-isochromen-1-one] | 230 to 232 °C | ≤ 0.1 | **** (an EC1.5×≦0.3 nM is indicated by four stars (****)) | ***** (a fold increase >1.65 is indicated by five stars (*****))
Cc1cn2cc(-c3cc4ccc(C5=CCN(C6CCC6)CC5)cc4c(=O)o3)nc2c(C)n1 [Cpd 94, 7-(1-cyclobutyl-1,2,3,6-tetrahydropyridin-4-yl)-3-(6,8-dimethylimidazo[1,2-a]pyrazin-2-yl)-1H-isochromen-1-one] | 252 to 254 °C | ≤ 0.1 | *** (an EC1.5× between >0.3 nM and ≦1 nM is indicated by three stars (***)) | ***** (a fold increase >1.65 is indicated by five stars (*****))
CCCN1CC=C(c2ccc3cc(-c4cn5cc(C)nc(C)c5n4)oc(=O)c3c2)CC1 [Cpd 95, 3-(6,8-dimethylimidazo[1,2-a]pyrazin-2-yl)-7-(1-propyl-1,2,3,6-tetrahydropyridin-4-yl)-1H-isochromen-1-one] | 226 to 228 °C | ≤ 0.1 | **** (an EC1.5×≦0.3 nM is indicated by four stars (****)) | ***** (a fold increase >1.65 is indicated by five stars (*****))

Second part, led by results:

melting point | Structure (SMILES) | EC (1.5-fold) [1] [µM] | EC1.5x for Smn protein expression (Smn protein) | maximum fold (Fold) increase of Smn protein (Smn protein)
240 to 242 °C | Cc1cn2cc(-c3cc4ccc(N5CCN(CCO)CC5)cc4c(=O)o3)cc2c(C)n1 [Cpd 79, 3-(1,3-dimethylpyrrolo[1,2-a]pyrazin-7-yl)-7-[4-(2-hydroxyethyl)piperazin-1-yl]-1H-isochromen-1-one] | ≤ 0.1 | **** (an EC1.5×≦0.3 nM is indicated by four stars (****)) | **** (a fold increase between >1.5 and ≦1.65 is indicated by four stars (****))
220 to 222 °C | Cc1cn2cc(-c3cc4ccc(N5CCN6CCC[C@H]6C5)cc4c(=O)o3)cc2c(C)n1 [Cpd 80, 3-(1,3-dimethylpyrrolo[1,2-a]pyrazin-7-yl)-7-[(8aS)-hexahydropyrrolo[1,2-a]pyrazin-2(1H)-yl]-1H-isochromen-1-one] | ≤ 0.1 | **** (an EC1.5×≦0.3 nM is indicated by four stars (****)) | **** (a fold increase between >1.5 and ≦1.65 is indicated by four stars (****))
218 to 220 °C | Cc1cn2cc(-c3cc4ccc(N5CCN6CCC[C@@H]6C5)cc4c(=O)o3)cc2c(C)n1 [Cpd 81, 3-(1,3-dimethylpyrrolo[1,2-a]pyrazin-7-yl)-7-[(8aR)-hexahydropyrrolo[1,2-a]pyrazin-2(1H)-yl]-1H-isochromen-1-one] | ≤ 0.1 | **** (an EC1.5×≦0.3 nM is indicated by four stars (****)) | ***** (a fold increase >1.65 is indicated by five stars (*****))
244 to 246 °C | CCCN1CCN(c2ccc3cc(-c4cn5cc(C)nc(C)c5n4)oc(=O)c3c2)CC1 [Cpd 82, 3-(6,8-dimethylimidazo[1,2-a]pyrazin-2-yl)-7-(4-propylpiperazin-1-yl)-1H-isochromen-1-one] | ≤ 0.1 | **** (an EC1.5×≦0.3 nM is indicated by four stars (****)) | ***** (a fold increase >1.65 is indicated by five stars (*****))
260 °C (dec.) | Cc1cn2cc(-c3cc4ccc(N5CCN(C6CC6)CC5)cc4c(=O)o3)nc2c(C)n1 [Cpd 84, 7-(4-cyclopropylpiperazin-1-yl)-3-(6,8-dimethylimidazo[1,2-a]pyrazin-2-yl)-1H-isochromen-1-one] | 0.1 to 0.3 | *** (an EC1.5× between >0.3 nM and ≦1 nM is indicated by three stars (***)) | ***** (a fold increase >1.65 is indicated by five stars (*****))
192 to 194 °C | COCCN1CCN(c2ccc3cc(-c4cn5cc(C)nc(C)c5n4)oc(=O)c3c2)CC1 [Cpd 85, 3-(6,8-dimethylimidazo[1,2-a]pyrazin-2-yl)-7-[4-(2-methoxyethyl)piperazin-1-yl]-1H-isochromen-1-one] | 0.1 to 0.3 | *** (an EC1.5× between >0.3 nM and ≦1 nM is indicated by three stars (***)) | ***** (a fold increase >1.65 is indicated by five stars (*****))
243 to 245 °C | Cc1cn2cc(-c3cc4ccc(N5CCN(CC(C)C)CC5)cc4c(=O)o3)nc2c(C)n1 [Cpd 86, 3-(6,8-dimethylimidazo[1,2-a]pyrazin-2-yl)-7-[4-(2-methylpropyl)piperazin-1-yl]-1H-isochromen-1-one] | ≤ 0.1 | – | *** (a fold increase between >1.35 and ≦1.5 is indicated by three stars (***))
279 to 281 °C | Cc1cn2cc(-c3cc4ccc(N5CCN(C6CCC6)CC5)cc4c(=O)o3)nc2c(C)n1 [Cpd 87, 7-(4-cyclobutylpiperazin-1-yl)-3-(6,8-dimethylimidazo[1,2-a]pyrazin-2-yl)-1H-isochromen-1-one] | ≤ 0.1 | **** (an EC1.5×≦0.3 nM is indicated by four stars (****)) | **** (a fold increase between >1.5 and ≦1.65 is indicated by four stars (****))
218 to 220 °C | Cc1cn2cc(-c3cc4ccc(C5CCNCC5)cc4c(=O)o3)nc2c(C)n1 [Cpd 96, 3-(6,8-dimethylimidazo[1,2-a]pyrazin-2-yl)-7-(piperidin-4-yl)-1H-isochromen-1-one] | ≤ 0.1 | **** (an EC1.5×≦0.3 nM is indicated by four stars (****)) | ***** (a fold increase >1.65 is indicated by five stars (*****))
